From ChEMBL document CHEMBL1155722, “Biological and mechanistic activities of xanthorrizol and 4-(1',5'-dimethylhex-4'-enyl)-2-methylphenol isolated from Iostephane heterophylla” (2001)
In brackets after ≈: the same amount, converted by molar mass.

Experiments:
[1] = system: Escherichia coli; assay: Inhibition of RNA synthesis in Escherichia coli assessed as incorporation of [3H]uridine at 128 ug/mL by LKB Betaplate scintillation counter relative to control; assay type: functional; design: scale not given: the % may be the effect or the level left
[2] = system: Escherichia coli; assay: Inhibition of RNA synthesis in Escherichia coli assessed as incorporation of [3H]uridine at 64 ug/mL by LKB Betaplate scintillation counter relative to control; assay type: functional; design: scale not given: the % may be the effect or the level left
[3] = system: Escherichia coli; assay: Inhibition of RNA synthesis in Escherichia coli assessed as incorporation of [3H]uridine at 32 ug/mL by LKB Betaplate scintillation counter relative to control; assay type: functional; design: scale not given: the % may be the effect or the level left
[4] = system: Escherichia coli; assay: Inhibition of RNA synthesis in Escherichia coli assessed as incorporation of [3H]uridine at 16 ug/mL by LKB Betaplate scintillation counter relative to control; assay type: functional; design: scale not given: the % may be the effect or the level left
[5] = system: Escherichia coli; assay: Inhibition of RNA synthesis in Escherichia coli assessed as incorporation of [3H]uridine at 8 ug/mL by LKB Betaplate scintillation counter relative to control; assay type: functional; design: scale not given: the % may be the effect or the level left
[6] = system: Escherichia coli; assay: Inhibition of protein synthesis in Escherichia coli assessed as incorporation of [3H]amino acid at 128 ug/mL by LKB Betaplate scintillation counter relative to control; assay type: functional; design: scale not given: the % may be the effect or the level left
[7] = system: Escherichia coli; assay: Inhibition of protein synthesis in Escherichia coli assessed as incorporation of [3H]amino acid at 64 ug/mL by LKB Betaplate scintillation counter relative to control; assay type: functional; design: scale not given: the % may be the effect or the level left
[8] = system: Escherichia coli; assay: Inhibition of protein synthesis in Escherichia coli assessed as incorporation of [3H]amino acid at 32 ug/mL by LKB Betaplate scintillation counter relative to control; assay type: functional; design: scale not given: the % may be the effect or the level left
[9] = system: Escherichia coli; assay: Inhibition of protein synthesis in Escherichia coli assessed as incorporation of [3H]amino acid at 16 ug/mL by LKB Betaplate scintillation counter relative to control; assay type: functional; design: scale not given: the % may be the effect or the level left
[10] = system: Escherichia coli; assay: Inhibition of protein synthesis in Escherichia coli assessed as incorporation of [3H]amino acid at 8 ug/mL by LKB Betaplate scintillation counter relative to control; assay type: functional; design: scale not given: the % may be the effect or the level left
[11] = system: Klebsiella pneumoniae; assay: Antimicrobial activity against Klebsiella pneumoniae 425 after 18 hrs by microbroth dilution method; assay type: functional; conditions: Klebsiella pneumoniae, 425, 18 h
[12] = system: Pseudomonas aeruginosa; assay: Antimicrobial activity against Pseudomonas aeruginosa 339 after 18 hrs by microbroth dilution method; assay type: functional; conditions: Pseudomonas aeruginosa, 339, 18 h
[13] = system: Candida albicans; assay: Antimicrobial activity against Candida albicans 54 after 18 hrs by microbroth dilution method; assay type: functional; conditions: Candida albicans, 54, 18 h
[14] = system: Escherichia coli; assay: Inhibition of DNA synthesis in Escherichia coli assessed as incorporation of [3H]thymidine at 128 ug/mL by LKB Betaplate scintillation counter relative to control; assay type: functional; design: scale not given: the % may be the effect or the level left
[15] = system: Escherichia coli; assay: Inhibition of DNA synthesis in Escherichia coli assessed as incorporation of [3H]thymidine at 64 ug/mL by LKB Betaplate scintillation counter relative to control; assay type: functional; design: scale not given: the % may be the effect or the level left
[16] = system: Escherichia coli; assay: Inhibition of DNA synthesis in Escherichia coli assessed as incorporation of [3H]thymidine at 32 ug/mL by LKB Betaplate scintillation counter relative to control; assay type: functional; design: scale not given: the % may be the effect or the level left
[17] = system: Escherichia coli; assay: Inhibition of DNA synthesis in Escherichia coli assessed as incorporation of [3H]thymidine at 16 ug/mL by LKB Betaplate scintillation counter relative to control; assay type: functional; design: scale not given: the % may be the effect or the level left
[18] = system: Escherichia coli; assay: Inhibition of DNA synthesis in Escherichia coli assessed as incorporation of [3H]thymidine at 8 ug/mL by LKB Betaplate scintillation counter relative to control; assay type: functional; design: scale not given: the % may be the effect or the level left
[19] = system: Staphylococcus aureus; assay: Antimicrobial activity against methicillin-sensitive Staphylococcus aureus 375 after 18 hrs by microbroth dilution method; assay type: functional; conditions: Staphylococcus aureus, 375, 18 h
[20] = system: Staphylococcus aureus; assay: Antimicrobial activity against methicillin-resistant Staphylococcus aureus 310 after 18 hrs by microbroth dilution method; assay type: functional; conditions: Staphylococcus aureus, 310, 18 h
[21] = system: Staphylococcus aureus; assay: Antimicrobial activity against Staphylococcus aureus ATCC 25923 after 18 hrs by microbroth dilution method; assay type: functional; conditions: ATCC 25923, 18 h
[22] = system: Enterococcus faecium; assay: Antimicrobial activity against vancomycin-resistant Enterococcus faecium 379 after 18 hrs by microbroth dilution method; assay type: functional; conditions: Enterococcus faecium, 379, 18 h
[23] = system: Enterococcus faecium; assay: Antimicrobial activity against Enterococcus faecium 436 after 18 hrs by microbroth dilution method; assay type: functional; conditions: Enterococcus faecium, 436, 18 h
[24] = system: Bacillus subtilis; assay: Antimicrobial activity against Bacillus subtilis 327 after 18 hrs by microbroth dilution method; assay type: functional; conditions: Bacillus subtilis, 327, 18 h
[25] = system: Escherichia coli; assay: Antimicrobial activity against Escherichia coli 389 after 18 hrs by microbroth dilution method; assay type: functional; conditions: Escherichia coli, 389, 18 h
[26] = system: Escherichia coli; assay: Antimicrobial activity against Escherichia coli 442 after 18 hrs by microbroth dilution method; assay type: functional; conditions: Escherichia coli, 442, 18 h
[27] = system: Escherichia coli; assay: Antimicrobial activity against Escherichia coli ATCC 25922 after 18 hrs by microbroth dilution method; assay type: functional; conditions: ATCC 25922, 18 h
[28] = system: Staphylococcus aureus; assay: Antimicrobial activity against Staphylococcus aureus after 18 hrs by micro-broth dilution method; assay type: functional
[29] = system: Escherichia coli; assay: Inhibition of RNA synthesis in Escherichia coli assessed as incorporation of [3H]uridine at 25 ug/mL by LKB Betaplate scintillation counter relative to control; assay type: functional; design: scale not given: the % may be the effect or the level left
[30] = system: Escherichia coli; assay: Inhibition of protein synthesis in Escherichia coli assessed as incorporation of [3H]amino acid at 25 ug/mL by LKB Betaplate scintillation counter relative to control; assay type: functional; design: scale not given: the % may be the effect or the level left
[31] = system: Escherichia coli; assay: Inhibition of DNA synthesis in Escherichia coli assessed as incorporation of [3H]thymidine at 25 ug/mL by LKB Betaplate scintillation counter relative to control; assay type: functional; design: scale not given: the % may be the effect or the level left
[32] = system: Escherichia coli; assay: Inhibition of RNA synthesis in Escherichia coli assessed as incorporation of [3H]uridine at 0.25 ug/mL by LKB Betaplate scintillation counter relative to control; assay type: functional; design: scale not given: the % may be the effect or the level left
[33] = system: Escherichia coli; assay: Inhibition of protein synthesis in Escherichia coli assessed as incorporation of [3H]amino acid at 0.25 ug/mL by LKB Betaplate scintillation counter relative to control; assay type: functional; design: scale not given: the % may be the effect or the level left
[34] = system: Escherichia coli; assay: Inhibition of DNA synthesis in Escherichia coli assessed as incorporation of [3H]thymidine at 0.25 ug/mL by LKB Betaplate scintillation counter relative to control; assay type: functional; design: scale not given: the % may be the effect or the level left
[35] = system: Staphylococcus aureus; assay: Antimicrobial activity against Staphylococcus aureus infected in CD1 mouse administered single oral dose after 7 days; assay type: functional; conditions: 168 h
[36] = system: Staphylococcus aureus; assay: Antimicrobial activity against Staphylococcus aureus infected in CD1 mouse administered subcutaneously after 30 mins infection measured after 7 days; assay type: functional; conditions: sc
[37] = Ratio of LD50 for CD1 mouse to ED50 for Staphylococcus aureus infected in single subcutaneously dosed CD1 moue

CC(C)=CCC[C@@H](C)c1ccc(O)c(C)c1
Activity [1]: 34.04%
Activity [2]: 39.08%
Activity [3]: 50.02%
Activity [4]: 60.35%
Activity [5]: 66.73%
Activity [6]: 25.34%
Activity [7]: 39.06%
Activity [8]: 44.2%
Activity [9]: 52.28%
Activity [10]: 68%
MIC [11]: 32 mg/L (≈ 147 µM)
MIC [12]: > 128 mg/L
MIC [13]: 128 mg/L (≈ 586 µM)
Activity [14]: 30.71%
Activity [15]: 37.82%
Activity [16]: 48.24%
Activity [17]: 63.06%
Activity [18]: 75.57%
MIC [19]: 16 mg/L (≈ 73.3 µM)
MIC [20]: 32 mg/L (≈ 147 µM)
MIC [21]: 16 mg/L (≈ 73.3 µM)
MIC [22]: 16 mg/L (≈ 73.3 µM)
MIC [23]: 16 mg/L (≈ 73.3 µM)
MIC [24]: 16 mg/L (≈ 73.3 µM)
MIC [25]: 32 mg/L (≈ 147 µM)
MIC [26]: > 128 mg/L
MIC [27]: > 128 mg/L

C[C@@]12C[C@@]34CC[C@H]5[C@@](C)(CCC[C@]5(C)C(=O)O)[C@@H]3C[C@H]1[C@H]2C4
MIC [28]: 128 mg/L (≈ 423 µM)

O=C(N[C@H](CO)[C@H](O)c1ccc([N+](=O)[O-])cc1)C(Cl)Cl [CHLORAMPHENICOL]
Activity [29]: 85.76%
Activity [30]: 18.96%
Activity [31]: 82.98%

CC1(C)S[C@@H]2[C@H](NC(=O)Cc3ccccc3)C(=O)N2[C@H]1C(=O)O [PENICILLIN G]
MIC [11]: 128 mg/L (≈ 383 µM)
MIC [12]: > 128 mg/L
MIC [13]: > 128 mg/L
MIC [19]: 0.06 mg/L (≈ 0.179 µM)
MIC [20]: 64 mg/L (≈ 191 µM)
MIC [21]: 0.06 mg/L (≈ 0.179 µM)
MIC [22]: 32 mg/L (≈ 95.7 µM)
MIC [23]: 32 mg/L (≈ 95.7 µM)
MIC [24]: 32 mg/L (≈ 95.7 µM)
MIC [25]: 2 mg/L (≈ 5.98 µM)
MIC [27]: 128 mg/L (≈ 383 µM)

CO[C@H]1/C=C/O[C@@]2(C)Oc3c(C)c(O)c4c(O)c(c(/C=N/N5CCN(C)CC5)c(O)c4c3C2=O)NC(=O)/C(C)=C\C=C\[C@H](C)[C@H](O)[C@@H](C)[C@@H](O)[C@@H](C)[C@H](OC(C)=O)[C@@H]1C [RIFAMPIN]
Activity [32]: 1.17%
Activity [33]: 27.82%
Activity [34]: 89.56%

CN[C@H](CC(C)C)C(=O)N[C@H]1C(=O)N[C@@H](CC(N)=O)C(=O)N[C@H]2C(=O)N[C@H]3C(=O)N[C@H](C(=O)N[C@H](C(=O)O)c4cc(O)cc(O)c4-c4cc3ccc4O)[C@H](O)c3ccc(c(Cl)c3)Oc3cc2cc(c3O[C@@H]2O[C@H](CO)[C@@H](O)[C@H](O)[C@H]2O[C@H]2C[C@](C)(N)[C@H](O)[C@H](C)O2)Oc2ccc(cc2Cl)[C@H]1O [VANCOMYCIN]
ED50 [35]: 230 mg/kg
ED50 [36]: 1 mg/kg
Ratio LD50/ED50 [37]: >1000

CC(C)=CCC[C@@H](C)c1ccc(C)c(O)c1 [XANTHORRIZOL]
Activity [1]: 1.91%
Activity [2]: 8.72%
Activity [3]: 48.56%
Activity [4]: 91.13%
Activity [5]: 96.87%
Activity [6]: 17.12%
Activity [7]: 23.39%
Activity [8]: 33.57%
Activity [9]: 96.92%
Activity [10]: 102.1%
MIC [11]: 32 mg/L (≈ 147 µM)
MIC [12]: > 128 mg/L
MIC [13]: 128 mg/L (≈ 586 µM)
ED50 [36]: > 32 mg/kg
Activity [14]: 1.52%
Activity [15]: 7.03%
Activity [16]: 35.75%
Activity [17]: 99.98%
Activity [18]: 95.33%
MIC [19]: 16 mg/L (≈ 73.3 µM)
MIC [20]: 32 mg/L (≈ 147 µM)
MIC [21]: 16 mg/L (≈ 73.3 µM)
MIC [22]: 16 mg/L (≈ 73.3 µM)
MIC [23]: 16 mg/L (≈ 73.3 µM)
MIC [24]: 16 mg/L (≈ 73.3 µM)
MIC [25]: 32 mg/L (≈ 147 µM)
MIC [26]: > 128 mg/L
MIC [27]: > 128 mg/L
